From patent publication US20210395210A1, “INHIBITION OF BACTERIAL CHAPERONIN SYSTEMS” (THE TRUSTEES OF INDIANA UNIVERSITY, priority 2018, published 2021) come the findings set out here.

pIC50: −log10 of the molar value. Read-outs that look alike come from different tables or passages of the source.

Experiment [1] has as its target T1, native MDH (Sus scrofa, UniProt P00346).
T1 construct: soluble pig heart MDH from Roche, product #10127248001; purchased Roche 10127248001; host or cells: pig heart
T1 sequence (P00346 25-338): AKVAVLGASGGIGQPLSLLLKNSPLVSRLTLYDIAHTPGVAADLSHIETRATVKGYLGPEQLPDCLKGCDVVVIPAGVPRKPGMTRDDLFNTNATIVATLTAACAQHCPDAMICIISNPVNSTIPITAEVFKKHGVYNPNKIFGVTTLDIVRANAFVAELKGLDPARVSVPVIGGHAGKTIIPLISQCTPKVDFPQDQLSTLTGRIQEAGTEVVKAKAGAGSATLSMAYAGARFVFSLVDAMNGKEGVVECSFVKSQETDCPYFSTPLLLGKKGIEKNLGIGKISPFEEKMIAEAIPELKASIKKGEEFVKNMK
Description: Counter-screen for inhibition of native MDH enzymatic activity. It counts as biochemical, pig. Particulars: for inhibition of native MDH enzymatic activity (in words): false-positive counter-screen; for log(IC50) Native MDH Reporter / IC50: log of IC50 (μM scale), with standard deviation; for IC50: read-out: log(IC50) Native MDH Reporter (converted); for pIC50: read-out: Biochemical Assay IC50 Native MDH Reporter. How it is done:
Reagent Preparations & Assay Protocol: This assay was performed as described above for the GroEL/ES-dMDH refolding assay; however, the assay protocol differed in the sequence of compound addition to the assay plates. The refolding reactions were allowed to proceed for 45 min at 37° C. in the absence of test compounds (complete refolding of MDH occurs), then quenched with the EDTA stock. Compounds were then pin-transferred into the plates after the EDTA quenching step; thus, compounds effects are only possible by inhibiting the fully-refolded MDH reporter substrate. […] A340 nm measurements were recorded at 0.5 minutes (start point) and at successive time points until the amount of NADH consumed reached ˜90% (end point, generally between 20-35 minutes). Compounds were tested in 8-point, 3-fold dilution series (62.5 μM to 29 nM during the reporter reaction) in clear, flat-bottom 384-well microtiter plates. DMSO was used as a negative control, and previously discovered native MDH inhibitors were used as positive controls. […] Results presented represent the averages of IC50 values obtained from at least quadriplicate (duplicate of duplicate) replicates.

In experiment [2] the target is T2, E. coli GroEL/ES (Escherichia coli, UniProt P0A6F5).
T2 construct: made in house; host or cells: GroEL in E. coli DH5α; GroES in E. coli BL21 (DE3)
Description: GroEL/ES-mediated dMDH refolding assay. The experiment is classed as biochemical. The note with it: for log(IC50) GroEL/ES-dMDH Refolding: log of IC50 (μM scale), with standard deviation; for selectivity for E. coli GroEL/ES over human HSP60/10 (in words): GroEL/ES-dMDH vs HSP60/10-dMDH IC50; for inhibition in the GroEL/ES-mediated refolding assays (in words): dMDH and dRho refolding assays. Here is the method:
Reagent preparation: For these assays, four primary reagent stocks were prepared: 1) GroEUES-dMDH or HSP60/10-dMDH binary complex stock; 2) ATP initiation stock; 3) EDTA quench stock; 4) MDH enzymatic assay stock. Denatured MDH (dMDH) was prepared by 2-fold dilution of MDH (5 mg/ml, soluble pig heart MDH from Roche, product #10127248001) with denaturant buffer (7 M guanidine-HCl, 200 mM Tris, pH 7.4, and 50 mM DTT). MDH was completely denatured by incubating at room temperature for 45 min. The binary complex solutions were prepared by slowly adding the dMDH stock to a stirring stock with GroEL (or HSP60) in folding buffer (50 mM Tris-HCl, pH 7.4, 50 mM KCl, 10 mM MgCl2, and 1 mM DTT), followed by addition of GroES (or HSP10). The binary complex stocks were prepared immediately prior to dispensing into the assay plates and had final protein concentrations of 83.3 nM GroEL (Mr 800 kDa) or HSP60 (Mr 400 kDa), 100 nM GroES or HSP10 (Mr 70 kDa), and 20 nM dMDH in folding buffer. For the ATP initiation stock, ATP solid was diluted into folding buffer to a final concentration of 2.5 mM. Quench solution contained 600 mM EDTA (pH 8.0). The MDH enzymatic assay stock consisted of 20 mM sodium mesoxalate and 2.4 mM NADH in reaction buffer (50 mM Tris-HCl, pH 7.4, 50 mM KCl, and 1 mM DTT).
Assay Protocol: First, 30 μL aliquots of the GroEL/ES-dMDH or HSP60/10-dMDH binary complex stocks were dispensed into clear, 384-well polystyrene plates. […] The chaperonin-mediated refolding cycles were initiated by addition of 20 μL of ATP stock (reagent concentrations during refolding cycle: 50 nM GroEL or HSP60, 60 nM GroES or HSP10, 12 nM dMDH, 1 mM ATP, and compounds of 100 μM to 46 nM, 3-fold dilution series). The refolding reactions were incubated at 37° C. […] Next, the assay was quenched by addition of 10 μL of the EDTA to final concentration of 100 mM. […] A340 nm measurements were recorded at 0.5 minutes (start point) and at successive time points until the amount of NADH consumed reached ˜90% (end point, generally between 20-35 minutes). The differences between the start and end point A340 values were used to calculate the % inhibition of the GroEL/ES or HSP60/10 machinery by the compounds. […] Results presented represent the averages of IC50 values obtained from at least quadriplicate (duplicate of duplicate) replicates.
After generating the compound library, we next employed a series of well-established biochemical assays to evaluate compound inhibitory effects against the GroEUES chaperonin system (See FIG. 6 and FIG. 7). We used E. coli GroEUES as the surrogate chaperonin system for refolding of the reporter enzymes malate dehydrogenase (MDH) and rhodanese (Rho). Briefly, binary complexes are formed between GroEL and denatured MDH or Rho, which are then refolded to their native states upon addition of ATP and the GroES co-chaperonin. Enzymatic activities of refolded native MDH or Rho act as coupled reporters of GroEUES refolding functions since in the presence of chaperonin inhibitors, no functional reporter enzymes are generated.

Where [3] appears, read: read-out: Biochemical Assay IC50 GroEL/ES-dMDH refolding.

What is called IC50 is the concentration that gives 50% inhibition.

T2 sequence (P0A6F5 2-548): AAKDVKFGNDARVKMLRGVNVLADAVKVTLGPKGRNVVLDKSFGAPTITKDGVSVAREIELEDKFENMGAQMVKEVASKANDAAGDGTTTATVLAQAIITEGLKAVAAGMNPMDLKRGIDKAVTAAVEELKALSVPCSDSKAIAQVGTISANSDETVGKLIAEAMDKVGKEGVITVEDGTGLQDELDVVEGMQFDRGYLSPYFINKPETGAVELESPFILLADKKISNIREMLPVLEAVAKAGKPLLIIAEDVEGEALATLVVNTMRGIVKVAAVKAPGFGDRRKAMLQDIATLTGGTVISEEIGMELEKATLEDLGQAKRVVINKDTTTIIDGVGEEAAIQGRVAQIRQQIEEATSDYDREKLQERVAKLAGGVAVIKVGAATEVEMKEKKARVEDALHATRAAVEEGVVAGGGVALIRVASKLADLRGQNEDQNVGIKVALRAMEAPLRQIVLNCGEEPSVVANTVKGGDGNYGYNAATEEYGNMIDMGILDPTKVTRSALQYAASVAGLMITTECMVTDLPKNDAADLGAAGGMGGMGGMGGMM

As for `O=C(Nc1ccc(Sc2nc3ccccc3s2)cc1)c1cc(Br)cc(Br)c1O` [Compound 5, N-(4-(Benzo[d]thiazol-2-ylthio)phenyl)-3,5-dibromo-2-hydroxybenzamide], in experiment [1], the “inhibition of native MDH enzymatic activity (in words)” value is given as “inhibit native MDH” and the “log(IC50) Native MDH Reporter” value was 0.92 ± 0.21. Besides, the “log(IC50) GroEL/ES-dMDH Refolding” value in experiment [2] is 0.43 ± 0.19. In addition, the pIC50 in experiment [2] (setting [3]) was 5.57.
For `O=C(Nc1ccc(Sc2nc3ccccc3s2)c(Cl)c1)c1cc(Br)cc(Br)c1O` [Compound 1, N-(4-(Benzo[d]thiazol-2-ylthio)-3-chlorophenyl)-3,5-dibromo-2-hydroxybenzamide], in that order: “inhibit native MDH”, 0.83 ± 0.25, 0.23 ± 0.28 and 5.77.
For the molecule `O=C(Nc1cccc(Cl)c1)c1cccc(Br)c1O` [Compound 10, 3-Bromo-N-(3-chlorophenyl)-2-hydroxybenzamide], in experiment [1], the IC50 is more than 63.1 µM.
On to `O=C(Nc1ccc(Sc2nc3ccccc3s2)c(Cl)c1)c1ccccc1` [Compound 19, N-(4-(Benzo[d]thiazol-2-ylthio)-3-chlorophenyl)benzamide], for which the IC50 in experiment [1] was more than 63.1 µM. The results for the pIC50 in experiment [1] and in experiment [2] were less than 4.20 and less than 4.00, respectively.
Consider `O=C(Nc1ccc(Sc2nc3ccccc3s2)cc1)c1cc(Br)ccc1O` [Compound 7, N-(4-(Benzo[d]thiazol-2-ylthio)phenyl)-5-bromo-2-hydroxybenzamide], for which, in experiment [1], the “inhibition of native MDH enzymatic activity (in words)” value is “inactive against the reporter enzymes”, the IC50 is more than 63.1 µM and the pIC50 is less than 4.20. In experiment [2], the “selectivity for E. coli GroEL/ES over human HSP60/10 (in words)” value (from here on “selectivity for E. coli GroEL/ES”) is listed as “selectively inhibit E. coli GroEUES over human HSP60/10”, the “inhibition in the GroEL/ES-mediated refolding assays (in words)” value was “moderate to potent inhibitors” and the “log(IC50) GroEL/ES-dMDH Refolding” value stood at 1.58 ± 0.34. Also, the pIC50 in experiment [2] (setting [3]) was 4.42.
On to `O=C(Nc1cccc(Cl)c1)c1ccccc1O` [Compound 12, N-(3-Chlorophenyl)-2-hydroxybenzamide], for which, in experiment [1], the IC50 was more than 63.1 µM and the pIC50 is less than 4.20. Moreover, in experiment [2], the pIC50 was less than 4.00 and the “log(IC50) GroEL/ES-dMDH Refolding” value is more than 2.
For `O=C(Nc1ccc(Sc2nc3ccccc3s2)cc1)c1cccc(Br)c1O` [Compound 6, N-(4-(Benzo[d]thiazol-2-ylthio)phenyl)-3-bromo-2-hydroxybenzamide], in experiment [1], the “inhibition of native MDH enzymatic activity (in words)” value is “inactive against the reporter enzymes”, the IC50 was more than 63.1 µM and the pIC50 was less than 4.20. Moreover, in experiment [2], the “inhibition in the GroEL/ES-mediated refolding assays (in words)” value was “moderate to potent inhibitors” and the “log(IC50) GroEL/ES-dMDH Refolding” value is listed as 1.52 ± 0.21. Moreover, the pIC50 in experiment [2] (setting [3]) was 4.48.
Regarding `O=C(Nc1cccc(Cl)c1)c1cc(Br)cc(Br)c1` [Compound 23, 3,5-Dibromo-N-(3-chlorophenyl)benzamide], in experiment [1], the IC50 is more than 63.1 µM and the pIC50 was less than 4.20. Also, in experiment [2], the pIC50 is less than 4.00 and the “log(IC50) GroEL/ES-dMDH Refolding” value is given as more than 2.
For `O=C(Nc1ccccc1)c1cc(Br)ccc1O` [Compound 15, 5-Bromo-2-hydroxy-N-phenylbenzamide], in that order: more than 63.1 µM, less than 4.20, less than 4.00 and more than 2.
With `O=C(Nc1ccc(Sc2nc3ccccc3s2)cc1)c1cccc(Br)c1` [Compound 21, N-(4-(Benzo[d]thiazol-2-ylthio)phenyl)-3-bromobenzamide], in experiment [1], the IC50 was more than 63.1 µM and the pIC50 is less than 4.20. In experiment [2], this molecule had a pIC50 of less than 4.00.
In the case of `O=C(Nc1ccccc1)c1cccc(Br)c1O` [Compound 14, 3-Bromo-2-hydroxy-N-phenylbenzamide], in experiment [1], the IC50 was more than 63.1 µM and the pIC50 is less than 4.20. Moreover, in experiment [2], the pIC50 is less than 4.00 and the “log(IC50) GroEL/ES-dMDH Refolding” value is more than 2.
Consider `O=C(Nc1ccc(Sc2nc3ccccc3s2)c(Cl)c1)c1cc(Br)ccc1O` [Compound 3, N-(4-(Benzo[d]thiazol-2-ylthio)-3-chlorophenyl)-5-bromo-2-hydroxybenzamide], for which, in experiment [1], the “inhibition of native MDH enzymatic activity (in words)” value is “inactive against the reporter enzymes”, the IC50 was more than 63.1 µM and the pIC50 is less than 4.20. Also, in experiment [2], the “selectivity for E. coli GroEL/ES” value is listed as “selectively inhibit E. coli GroEUES over human HSP60/10”, the “inhibition in the GroEL/ES-mediated refolding assays (in words)” value is on record as “moderate to potent inhibitors” and the “log(IC50) GroEL/ES-dMDH Refolding” value is 1.57 ± 0.35. In addition, the pIC50 in experiment [2] (setting [3]) was 4.43.
Turning to `O=C(Nc1cccc(Cl)c1)c1cc(Br)ccc1O` [Compound 11, 5-Bromo-N-(3-chlorophenyl)-2-hydroxybenzamide], in experiment [1], the half-maximal inhibitory concentration (IC50) was more than 63.1 µM and the pIC50 was less than 4.20. Also, in experiment [2], the pIC50 was less than 4.00 and the “log(IC50) GroEL/ES-dMDH Refolding” value is reported as more than 2.
As to `O=C(Nc1ccc(Sc2nc3ccccc3s2)c(Cl)c1)c1cccc(Br)c1O` [Compound 2, N-(4-(Benzo[d]thiazol-2-ylthio)-3-chlorophenyl)-3-bromo-2-hydroxybenzamide], in experiment [1], the “inhibition of native MDH enzymatic activity (in words)” value is “inactive against the reporter enzymes”, the IC50 was more than 63.1 µM and the pIC50 is less than 4.20. In experiment [2], the “inhibition in the GroEL/ES-mediated refolding assays (in words)” value is “moderate to potent inhibitors” and the “log(IC50) GroEL/ES-dMDH Refolding” value is 0.98 ± 0.23. The pIC50 in experiment [2] (setting [3]) is 5.02.
As for `O=C(Nc1ccc(Sc2nc3ccccc3s2)c(Cl)c1)c1ccccc1O` [Compound 4, N-(4-(Benzo[d]thiazol-2-ylthio)-3-chlorophenyl)-2-hydroxybenzamide], in experiment [1], the IC50 is more than 63.1 µM and the pIC50 was less than 4.20. In experiment [2], the “selectivity for E. coli GroEL/ES” value is “selectively inhibit E. coli GroEUES over human HSP60/10” and the “log(IC50) GroEL/ES-dMDH Refolding” value came to 1.62 ± 0.32. The pIC50 in experiment [2] (setting [3]) is 4.38.
